Values of other authors in patent US9260760B2, “Method for determining complete response to anticancer therapy” (Board of Regents, The University of Texas System, priority 2012, dated 2016).
Where two headings read alike, the source gives them in different places.

Key:
[1] = tested on: metastatic colorectal cancer; conditions: cited from earlier work
[2] = cited from earlier work

Structure (SMILES): CCCCCOC(=O)Nc1nc(=O)n([C@@H]2O[C@H](C)[C@@H](O)[C@H]2O)cc1F [Capecitabine, capecitabine]
- Complete response (%) ([1]; first-line therapy): 3%
- Median OS (months) ([1]; first-line therapy): 12.4-13.2 months
- Median PFS (months) ([1]; first-line therapy): 4.2 months
- Response rate (%) ([1]; first-line therapy): 19-25%
- Stable disease (%) ([1]; first-line therapy): 50%
- time at which half of the patients experienced tumor progression ([1]; monotherapy capecitabine): 2-4 months
- Complete response (%) ([1]; second-line therapy): 0%
- Median OS (months) ([1]; second-line therapy): 12.2 months
- Median PFS (months) ([1]; second-line therapy): 2.1 months
- Response rate (%) ([1]; second-line therapy): 0%
- Stable disease (%) ([1]; second-line therapy): 50%
- grade 3 HFS ([2]; capecitabine at 1250 mg/m2/d): ≤ 17%
- patients with HFS onset within six weeks ([2]; capecitabine at 1250 mg/m2/d): 93%
- patients with most severe HFS episode within six weeks ([2]; capecitabine at 1250 mg/m2/d): 67.9%
- HFS ([2]; capecitabine starting at 750-1000 mg/m2/d bid with irinotecan (Patt et al., 2004)): 35%
- incidence of grade ⅔ HFS ([2]; earlier study, capecitabine 1000 mg/m2/d bid (Lin et al., 2002)): 34.2%
